Square brackets hold non-standard residues; d marks the D form. Peptide text beside a SMILES is read from it.
System: rumen fluid which contained methane-producing bacteria and other rumen bacteria
Experiment: In vitro rumen fermentation test
Format: cell-based
Procedure: Rumen fluid which contained methane-producing bacteria and other rumen bacteria was produced in a fermentor which was set up and maintained to simulate the conditions of a rumen.
The test was carried out in a screw-cap tube which was sealed with a butyl rubber stopper. […] The air in the tube was replaced with a gas mixture of 97% nitrogen-3% hydrogen made free of oxygen by passage through a catalytic purifier. After incubation for 18 hours in a water bath shaker at 39° C., 0.5 ml. of the gas was removed through the stopper into the sample loop of a Fisher Gas Partitioner. The gas sample was partitioned, and the methane produced was compared to a standard gas mixture containing a known amount of methane. The incubation mixture was acidified with 4 ml. of 10% metaphosphoric acid and centrifuged. One μl. of the supernate was analyzed by gas-liquid chromatography. The volatile fatty acids were compared to a standard volatile fatty acid mixture containing known amounts of acetic, propionic, butyric and valeric acids. Appropriate controls were included.

## O=C1N[C@H](Cc2ccccc2)C(=O)N2CCC[C@H]2C(=O)N[C@H](Cc2ccccc2)C(=O)N2CCC[C@H]2C(=O)N[C@H](Cc2ccccc2)C(=O)N2CCC[C@@H]12 [cyclo(Pro-D-Phe)3, Cyclo(Pro-D-Phe)3] (cyclo(P[dF]P[dF]P[dF]))
250 μg./ml. of tested compound, incubation 18 hours at 39° C., gas partitioner
  CH4 (methane) produced: essentially eliminated
250 μg./ml. of tested compound, incubation 18 hours at 39° C., gas-liquid chromatography
  shift in VFA ratios: significant shift in VFA ratios favoring the longer chain acids
Treated 16 μg./ml., control 1.8
  Valeric acid, μmols: 4.5 μmols
Treated 16 μg./ml., control 3.0
  Valeric acid, μmols %: 7.0 μmols %
Treated 16 μg./ml., control 7.1
  Butyric acid, μmols: 15.3 μmols
Treated 16 μg./ml., control 10.5
  Butyric acid, μmols %: 25.0 μmols %
Treated 16 μg./ml., control 19.5
  Propionic acid, μmols: 23.0 μmols
Treated 16 μg./ml., control 28.5
  Propionic acid, μmols %: 37.0 μmols %
Treated 16 μg./ml., control 39.9
  Acetic acid, μmols: 18.8 μmols
Treated 16 μg./ml., control 58.5
  Acetic acid, μmols %: 31.0 μmols %
Treated 16 μg./ml., control 68.3
  Total volatile fatty acids, μmols: 61.6 μmols
In vitro rumen fermentation
  production of VFAs (summary of tabulated data): effective in increasing the production of the VFAs, propionic, butyric and valeric at the expense of methane and acetate

Source: US4108987A, “Cyclic hexapeptides” (Merck & Co., Inc., priority 1977, dated 1978)
